Tests used:
[1] = test system: pregnant human female in PTL (uterine contractions); conditions: Example 1
Description: A pregnant person, at 29.5 weeks gestation, presented to the hospital in PTL during their first pregnancy. […] The patient's parent experienced PTL during one of their pregnancies, leading to premature birth of the patient at 30 weeks gestation. The patient's sibling also had experienced PTL with one of their pregnancies resulting in premature birth at 36 weeks gestation.
The patient was diagnosed with PTL and started on nifedipine 20 mg by mouth every 6 hours for tocolysis and magnesium sulfate 6 g as an intravenous infusion over 30 minutes followed by 2 g per hour for the next 12 hours for fetal neuroprotection. […] A course of steroids were also given for fetal lung maturation.
The patient then enrolled in a study conducted in advancement of the present disclosure and began therapy with gabapentin 300 mg, 3×/day (900 mg/day total). […] The following day the patient was discharged home only on gabapentin 300 mg, 3×/day and their previous outpatient dose of atenolol at 50 mg a day. […] They were instructed to increased their gabapentin dose to 600 mg, 3×/day.
Gabapentin was not administered while the patient was in the hospital. […] The patient was discharged.
Such contractions are the hallmark of preterm labor, which is known to result in premature birth in 60% of cases.

[2] = test system: pregnant human in PTL (uterine contractions, uterine pressure); assay: Example 2: gabapentin maintenance therapy in a patient with preterm labor (case report); type: in vivo
Description: The cervix was dilated at 3.5-4 cm and regular uterine contractions were occurring at 11/hour. […] The uterine contractions slowly diminished and were completely resolved 14 hours after tocolysis was initiated.
The cervix was still 3.5-4 cm dilated at the time of enrollment. By the evening of the next day, the subject began feeling “uncomfortable” with a “pressure” feeling in their uterus. They were instructed the next day to increase their bedtime gabapentin dose to 600 mg and to continue 300 mg in the morning and in the afternoon. […] Two days later the subject reported feeling some recurrent uterine pressure especially noticeable for the hour before each gabapentin dose was taken. Gabapentin was increased to 600 mg, 3×/day and by the following day all of the pressure symptoms had resolved. The subject remained asymptomatic.
They continued on gabapentin 600 mg, 3×/day and remained asymptomatic. Three days later the subject noticed that their “water broke”. They were admitted to the hospital and confirmed to have preterm premature rupture of membranes (PPROM) with cervix still dilated to 4 cm. Gabapentin was continued at 600 mg, 3×/day. The subject remained asymptomatic throughout the next day; however, on the morning of the following day the subject began having regular uterine contractions about every 3-5 minutes and their cervix had now dilated to 7cm.
This discovery of gabapentin maintenance therapy resolving recurrent uterine contractions and pressure symptoms leading to a prolongation of pregnancy and preserving fetal survival is accordingly highly valuable to the public. Its value can be recognized at least in part because uterine contractions are an essential component of PTL, which precedes 40-50% of premature births (<37 weeks gestation) and as described above, premature birth occurs in 11.5% of all live births in the US, is the number one cause of neonatal mortality, and is responsible for half of the long-term neurological impairments in children. […]

[3] = Serum half-life and clearance of gabapentin in humans; type: in vivo; conditions: expected from the serum half-life
From the text: The patient was discharged.

[4] = test system: preterm labor / premature birth; conditions: cited from earlier work
[5] = nifedipine 20 mg by mouth every 6 hours, with i.v. magnesium sulfate for fetal neuroprotection

NCC1(CC(=O)O)CCCCC1 [gabapentin, (1-aminomethyl)cyclohexaneacetic acid]
recurrent uterine cramping and uterine contraction feelings ([1]; dose increased from 300 mg to 600 mg 3x/day, after the second 600 mg dose): fully resolved
side effects after the first dose ([1]; gabapentin 300 mg 3x/day, resolved that same day): mild dizziness
side effects from the higher dose ([1]; gabapentin 600 mg 3x/day): did not experience any side effects
time remained stable without any uterine cramping ([1]; gabapentin 600 mg 3x/day): 16 days
outcome after discontinuation of maintenance therapy ([1]; gabapentin discontinued for 8 days): associated with the IUFD
uncomfortable pressure feeling in uterus ([2]; bedtime dose increased to 600 mg, 300 mg morning and afternoon, following morning): fully resolved
recurrent uterine pressure symptoms ([2]; gabapentin increased to 600 mg 3x/day, by the following day): resolved
time to be fully cleared after discontinuation [3]: about 30 hours
use during pregnancy and premature birth ([4]; Fujii H, et al. Neurology 2013): associated with an increase in premature birth

O=S(=O)([O-])[O-].[Mg+2] [magnesium sulfate]
time to resolution of all uterine contractions ([1]; recurrent contractions, intravenous magnesium sulfate infusion 2 g/hour, gabapentin not administered): ≤ 5 h

COC(=O)C1=C(C)NC(C)=C(C(=O)OC)C1c1ccccc1[N+](=O)[O-] [nifedipine]
time to complete resolution of uterine contractions after tocolysis was initiated [1, 5]: 12 h
time to complete resolution of uterine contractions after tocolysis was initiated [2, 5]: 14 h

CC(C)(C)NCC(O)c1cc(O)cc(O)c1 (stereo not shown) [terbutaline]
maintenance tocolysis for prolonging pregnancy ([4]; patients with recent or resolved PTL, versus placebo): no more effective than maintenance placebo therapy
